Experiments:
[1] = biological target: PD-1/PD-L1 (Homo sapiens (Human), UniProt Q9NZQ7); experiment: PD-1/PD-L1 Binding Assay (Alphascreen); conditions: numeric values
How it was run: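 PD-1/PD-L1 binding detected by anti-6×His acceptor and streptavidin donor beads after 120 min in the dark at 25 °C. Beforehand, the two proteins were incubated 15 min at 25 °C with inhibitor at 0.015–300 nM (1% DMSO). IC50 comes from a log concentration–response curve.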

[2] = Pharmacokinetic Assay, single oral dose 5 mg/kg (Table 12); assay type: in vivo; conditions: mouse, plasma concentration, C57 female mice, single oral dose 5 mg/kg
Method: Adult C57 female mice were received to single-dose of the test compounds with 15% DMSO, 10% Kolliphor^@HS 15 and 75% saline as excipients, the mice (n=3) were giving oral administration (intragastric administration) with the compounds at a dose of 5 mg/kg. Time of blood collection: 30 min, 2 h, 4 h. approximately 0.1 mL of whole blood was collected from retro-orbital venous plexus, and placed into tubes that contained K2-EDTA as an anticoagulant. The whole blood were centrifuged at 4° C. and 4000 rpm for 10 min. The plasma was transferred into centrifuge tubes, and stored at −20° C. until being analyzed. Concentrations of test compounds in the plasma samples were analyzed with liquid chromatography-tandem mass spectrometry (LC-MS/MS). Plasma concentration-time data of individual animals was analyzed using Microsoft Excel 2010.

Sequence of PD-1/PD-L1 (Q9NZQ7 19-238): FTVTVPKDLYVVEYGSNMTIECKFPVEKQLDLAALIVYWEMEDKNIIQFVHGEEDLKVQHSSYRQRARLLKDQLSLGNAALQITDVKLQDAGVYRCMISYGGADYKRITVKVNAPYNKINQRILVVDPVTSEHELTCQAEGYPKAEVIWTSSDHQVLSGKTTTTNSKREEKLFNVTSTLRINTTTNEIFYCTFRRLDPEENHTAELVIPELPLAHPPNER

Row | Compound | IC50 [1] | concentration at 0.5 h [2] | concentration at 2 h [2] | concentration at 4 h [2]
1 | Cc1c(-c2nc3cc(CN4CCC(F)C4)c(OC(F)F)cc3o2)cccc1-c1cccc(-c2nc3cc(CN4CCC[C@H]4C(=O)O)c(OC(F)F)cc3o2)c1C (stereo partly drawn) [Example 10, ((6-(difluoromethoxy)-2-(3′-(6-(difluoromethoxy)-5-((3-fluoropyrrolidin-1-yl)methyl)benzo[d]oxazol-2-yl)-2,2′-dimethyl-[1,1′-biphenyl]-3-yl)benzo[d]oxazol-5-yl)methyl)-L-proline] | 0.019 µM | 0.0809 µg/mL | 0.221 µg/mL | 0.214 µg/mL
2 | Cc1c(-c2nc3cc(CN4CCOCC4)c(OC(F)F)cc3o2)cccc1-c1cccc(-c2nc3cc(CN4CCC[C@H]4C(=O)O)c(OC(F)F)cc3o2)c1C [Example 13, ((6-(difluoromethoxy)-2-(3′-(6-(difluoromethoxy)-5-(morpholinomethyl)benzo[d]oxazol-2-yl)-2,2′-dimethyl-[1,1′-biphenyl]-3-yl)benzo[d]oxazol-5-yl)methyl)-L-proline] | 0.026 µM | 0.0793 µg/mL | 0.241 µg/mL | 0.301 µg/mL
3 | Cc1c(-c2nc3cc(CN4C[C@@H](F)[C@H](F)C4)c(OC(F)F)cc3o2)cccc1-c1cccc(-c2nc3cc(CN4CCC[C@H]4C(=O)O)c(OC(F)F)cc3o2)c1C [Example 18, ((6-(difluoromethoxy)-2-(3′-(6-(difluoromethoxy)-5-(((3R,4R)-3,4-difluoropyrrolidin-1-yl)methyl)benzo[d]oxazol-2-yl)-2,2′-dimethyl-[1,1′-biphenyl]-3-yl)benzo[d]oxazol-5-yl)methyl)-L-proline] | 0.164 µM | 0.303 µg/mL | 0.642 µg/mL | 0.626 µg/mL
4 | Cc1c(-c2nc3cc(CNCC(O)C(F)(F)F)c(OC(F)F)cc3o2)cccc1-c1cccc(-c2nc3cc(CN4CCC[C@H]4C(=O)O)c(OC(F)F)cc3o2)c1C (stereo partly drawn) [Example 22, ((6-(difluoromethoxy)-2-(3′-(6-(difluoromethoxy)-5-(((3,3,3-trifluoro-2-hydroxypropyl)amino)methyl)benzo[d]oxazol-2-yl)-2,2′-dimethyl-[1,1′-biphenyl]-3-yl)benzo[d]oxazol-5-yl)methyl)-L-proline] | 0.025 µM | 0.0686 µg/mL | 0.155 µg/mL | 0.0811 µg/mL
5 | Cc1c(-c2nc3cc(CN4CCN(C)C(C)C4)c(OC(F)F)cc3o2)cccc1-c1cccc(-c2nc3cc(CN4CCC[C@H]4C(=O)O)c(OC(F)F)cc3o2)c1C (stereo partly drawn) [Example 23, ((6-(difluoromethoxy)-2-(3′-(6-(difluoromethoxy)-5-((3,4-dimethylpiperazin-1-yl)methyl)benzo[d]oxazol-2-yl)-2,2′-dimethyl-[1,1′-biphenyl]-3-yl)benzo[d]oxazol-5-yl)methyl)-L-proline] | 0.0077 µM | 0.0462 µg/mL | 0.148 µg/mL | 0.0947 µg/mL
6 | Cc1c(-c2nc3cc(CN4CC(C)C4)c(OC(F)F)cc3o2)cccc1-c1cccc(-c2nc3cc(CN4CCC[C@H]4C(=O)O)c(OC(F)F)cc3o2)c1C [Example 56, ((6-(difluoromethoxy)-2-(3′-(6-(difluoromethoxy)-5-((3-methylazetidin-1-yl)methyl)benzo[d]oxazol-2-yl)-2,2′-dimethyl-[1,1′-biphenyl]-3-yl)benzo[d]oxazol-5-yl)methyl)-L-proline] | 0.00083 µM | 0.0199 µg/mL | 0.192 µg/mL | 0.155 µg/mL
7 | Cc1c(-c2nc3cc(CN(C)[C@@H]4CCC[C@H]4O)c(OC(F)F)cc3o2)cccc1-c1cccc(-c2nc3cc(CN4CCC[C@H]4C(=O)O)c(OC(F)F)cc3o2)c1C [Example 57, ((6-(difluoromethoxy)-2-(3′-(6-(difluoromethoxy)-5-((((1R,2R)-2-hydroxycyclopentyl) (methyl)amino)methyl)benzo[d]oxazol-2-yl)-2,2′-dimethyl-[1,1′-biphenyl]-3-yl)benzo[d]oxazol-5-yl)methyl)-L-proline] | 0.0012 µM | 0.0271 µg/mL | 0.149 µg/mL | 0.09 µg/mL

Reference: patent publication US12187713B2, “Immunomodulators, compositions and methods thereof” (Betta Pharmaceuticals Co., Ltd, priority 2019, dated 2025)
